Source: the supplement of paper PMC5908809

Columns and labels:
[1] = test system: normal NK cells expanded with K562-aAPC; experiment: drug sensitivity score (DSS) (DSS units); higher = more sensitive; extreme values may be limits of the assay; details: 72 h; IL-2 2.5 ng/mL
Experimental: (§1)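 Drug sensitivity and resistance testing on K562-aAPC-expanded normal NK cells: 5 concentrations (10-fold steps over a 10,000-fold range), 72 h at 37 °C, viability by CellTiter-Glo normalised to DMSO and benzethonium chloride controls; DSS from the fitted curve.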

[2] = test system: KAI3 (IL-2 2.5 ng/mL); experiment: as above; details: 72 h
[3] = test system: IMC-1 (IL-2 20 ng/mL); experiment: as above; details: 72 h
[4] = test system: normal primary NK cells, pool 2 (3 donors) (IL-2 2.5 ng/mL); experiment: as above; details: 72 h
[5] = test system: normal primary NK cells, pool 1 (3 donors) (IL-2 2.5 ng/mL); experiment: as above; details: 72 h
[6] = test system: NKL (IL-2 2.5 ng/mL); experiment: as above; details: 72 h
[7] = test system: normal primary NK cells, pool 1 (3 donors), resting (IL-2 0 ng/mL); experiment: as above; details: 72 h
[8] = test system: NK-92 (IL-2 2.5 ng/mL); experiment: as above; details: 72 h
[9] = test system: DERL-7 (IL-2 2.5 ng/mL); experiment: as above; details: 72 h
[10] = test system: NK-YS (IL-2 2.5 ng/mL); experiment: as above; details: 72 h
[11] = test system: normal primary NK cells, pool 3 (3 donors) (IL-2 2.5 ng/mL); experiment: as above; details: 72 h
[12] = test system: YT (IL-2 2.5 ng/mL); experiment: as above; details: 72 h
[13] = test system: SNK-6 (IL-2 2.5 ng/mL); experiment: as above; details: 72 h
[14] = test system: KHYG-1 (IL-2 2.5 ng/mL); experiment: as above; details: 72 h
[15] = test system: KAI3 (IL-2 2.5 ng/mL); experiment: percent inhibition of viability; higher = more inhibition; details: 72 h
[16] = test system: IMC-1 (IL-2 20 ng/mL); experiment: as above; details: 72 h
[17] = test system: normal primary NK cells, pool 2 (3 donors) (IL-2 2.5 ng/mL); experiment: as above; details: 72 h
[18] = test system: normal primary NK cells, pool 1 (3 donors) (IL-2 2.5 ng/mL); experiment: as above; details: 72 h
[19] = test system: NKL (IL-2 2.5 ng/mL); experiment: as above; details: 72 h
[20] = test system: normal primary NK cells, pool 1 (3 donors), resting (IL-2 0 ng/mL); experiment: as above; details: 72 h
[21] = test system: NK-92 (IL-2 2.5 ng/mL); experiment: as above; details: 72 h
[22] = test system: DERL-7 (IL-2 2.5 ng/mL); experiment: as above; details: 72 h
[23] = test system: NK-YS (IL-2 2.5 ng/mL); experiment: as above; details: 72 h
[24] = test system: normal primary NK cells, pool 3 (3 donors) (IL-2 2.5 ng/mL); experiment: as above; details: 72 h
[25] = test system: YT (IL-2 2.5 ng/mL); experiment: as above; details: 72 h
[26] = test system: SNK-6 (IL-2 2.5 ng/mL); experiment: as above; details: 72 h
[27] = test system: KHYG-1 (IL-2 2.5 ng/mL); experiment: as above; details: 72 h
[28] = test system: normal NK cells expanded with K562-aAPC; experiment: as above; details: 72 h, IL-2 2.5 ng/mL
Experimental: as §1

CNC(=O)c1cc(Oc2ccc(NC(=O)Nc3cc(C(C)(C)C)nn3-c3ccc4ncccc4c3)c(F)c2)ccn1 [Rebastinib] (max concentration tested 1000 nM)
Details | drug sensitivity score
[1] | 0
[2] | 0
[3] | 0
[4] | 0
[5] | 0
[6] | 0
[7] | 0
[8] | 0
[9] | 0
[10] | 0
[11] | 0
[12] | 0
[13] | 0
[14] | 0

percent inhibition of viability [%]
Details | 0.1 nM | 1 nM | 10 nM | 100 nM | 1000 nM
[15] | 7.99 | 9.63 | 10.5 | 5.1 | -6.78
[16] | 0.93 | 7.15 | -1.23 | 1.86 | -6.19
[17] | -4.03 | -4.97 | -4.4 | -1.73 | -9.3
[18] | -3.76 | -8.51 | -9.53 | -4.2 | -12.7
[19] | -2.2 | -3.91 | -1.3 | 8.69 | 5.2
[20] | -11.2 | -7.34 | -6.2 | -15.4 | 1.95
[21] | -1.88 | 1.51 | -1.48 | 0.06 | -12.8
[22] | -4.96 | 1.69 | -0.5 | -4.52 | -8.09
[23] | -1.58 | -3.98 | -0.95 | 1.01 | 2.92
[24] | -9.69 | -6.19 | -1.5 | -11 | -8.81
[25] | -4.61 | -3.15 | -0.26 | 1.61 | -0.37
[26] | 7.77 | 13.4 | -14.2 | 1.04 | -59.9
[27] | -2.88 | -0.08 | 0.01 | -1.2 | -8.03
[28] | -1.77 | -3.86 | -0.78 | -3.03 | -4.18

COc1cc(F)c(F)c(Nc2ccc(I)cc2F)c1NS(=O)(=O)C1(C[C@H](O)CO)CC1 [Refametinib] (max concentration tested 10000 nM)
Details | drug sensitivity score
[1] | 1.44
[2] | 6.75
[3] | 2.67
[4] | 3.81
[5] | 3.32
[6] | 19.1
[7] | 4.14
[8] | 4.28
[9] | 14.7
[10] | 2.69
[11] | 1.74
[12] | 4.03
[13] | 0
[14] | 16

percent inhibition of viability [%]
Details | 1 nM | 10 nM | 100 nM | 1000 nM | 10000 nM
[15] | -4.59 | 6.78 | 18.3 | 26.5 | 39.6
[16] | -4.32 | -6.37 | -1.56 | 6.1 | 35.3
[17] | 0 | 6.56 | 8.63 | 16.2 | 40.9
[18] | -10.8 | 15.4 | 14 | 11.4 | 29.1
[19] | -2.52 | 16.4 | 39.5 | 74.4 | 82.3
[20] | 0.56 | 9.23 | 10.7 | 12.4 | 49.4
[21] | -0.27 | -1.5 | -9.05 | 19.5 | 37.8
[22] | 6.17 | 13 | 30.2 | 53.8 | 78
[23] | -4.96 | -5.01 | 5 | 14.1 | 31.5
[24] | -4.86 | 5.75 | -0.36 | 3.44 | 28.4
[25] | 1.91 | 1.53 | 7.51 | 17.5 | 44.4
[26] | 2.1 | -35.6 | -25 | -46.3 | -9.38
[27] | -5.12 | 4.63 | 33.5 | 62.9 | 76.7
[28] | -5.33 | -11.3 | -6.84 | 4.3 | 23.1

O=C(Nc1cccc(Cl)c1)Nc1ncc(CCNc2ncnc3ccsc23)s1 [SNS-314] (max concentration tested 1000 nM)
Details | drug sensitivity score
[1] | 8.52
[2] | 7.77
[3] | 5.61
[4] | 0
[5] | 0
[6] | 4.85
[7] | 3.41
[8] | 11.2
[9] | 13.1
[10] | 13
[11] | 0
[12] | 3.89
[13] | 17.1
[14] | 15

percent inhibition of viability [%]
Details | 0.1 nM | 1 nM | 10 nM | 100 nM | 1000 nM
[15] | -2.71 | -1.61 | 20.4 | 30.6 | 47.3
[16] | -9.62 | -5.56 | 14.2 | 10.2 | 70.4
[17] | -8.39 | 1.8 | 4.68 | 5.41 | 5.48
[18] | 1.31 | 16.9 | 9.79 | 4.5 | 10.9
[19] | -9.51 | -8.35 | 6.03 | 23.5 | 42.8
[20] | 3.09 | 19.6 | 8.47 | 17.5 | 20.9
[21] | -4.05 | -1.72 | 20.3 | 45.2 | 83.4
[22] | -2.96 | -1.43 | 3.21 | 69.3 | 58.4
[23] | -8.15 | -3.63 | -0.24 | 70.4 | 75.2
[24] | -5.85 | 0.22 | 7.29 | 3.37 | 8.78
[25] | -4.76 | -1.46 | 7.82 | 19 | 37.3
[26] | -12.7 | -23.7 | 33.2 | 59.5 | 70
[27] | -7.32 | -4.71 | 35.4 | 53.6 | 68
[28] | -6.43 | -10 | 4.3 | 43.3 | 42.2

O=C(/C=C\n1cnc(-c2cc(C(F)(F)F)cc(C(F)(F)F)c2)n1)NNc1cnccn1 [Selinexor] (max concentration tested 10000 nM)
Details | drug sensitivity score
[1] | 25.9
[2] | 23.9
[3] | 15.5
[4] | 26
[5] | 24.1
[6] | 19.9
[7] | 29
[8] | 20.8
[9] | 25
[10] | 19.4
[11] | 24.6
[12] | 25.4
[13] | 25.1
[14] | 21.3

percent inhibition of viability [%]
Details | 1 nM | 10 nM | 100 nM | 1000 nM | 10000 nM
[15] | -3.28 | 4.63 | 52.6 | 93.7 | 106
[16] | -4.46 | 1.62 | -10.9 | 86.9 | 100
[17] | -5.72 | 14.1 | 65.8 | 89.2 | 97.1
[18] | 3.58 | 9.52 | 57.5 | 87.9 | 98.6
[19] | -4.23 | 11 | 42.8 | 76.3 | 87.8
[20] | -3.27 | 25.6 | 77.9 | 87.5 | 93.1
[21] | -2.59 | -2.77 | 33.9 | 90.6 | 101
[22] | -2.69 | 16.9 | 59.3 | 89.7 | 99.2
[23] | -3.45 | 3.74 | 39 | 77.4 | 95.4
[24] | -6.17 | 1.79 | 59.1 | 88.1 | 99.8
[25] | 3.93 | 13.2 | 61.2 | 91.8 | 104
[26] | -0.01 | 17.6 | 63.9 | 81.6 | 93.4
[27] | 0.08 | 3.04 | 35.7 | 93.3 | 102
[28] | 4.95 | 27.1 | 55.3 | 96.5 | 101

Cn1cnc2c(F)c(Nc3ccc(Br)cc3Cl)c(C(=O)NOCCO)cc21 [Selumetinib] (max concentration tested 10000 nM)
Details | drug sensitivity score
[1] | 0.36
[2] | 2.27
[3] | 0.24
[4] | 2.98
[5] | 5.53
[6] | 10.8
[7] | 5.28
[8] | 1.3
[9] | 10.2
[10] | 1.42
[11] | 0.11
[12] | 0.33
[13] | 0
[14] | 7.98

percent inhibition of viability [%]
Details | 1 nM | 10 nM | 100 nM | 1000 nM | 10000 nM
[15] | 6.76 | 0.73 | 4.04 | 12.1 | 29.3
[16] | -12.4 | -11.4 | -5.26 | -4.59 | 17.3
[17] | -9.3 | -7.88 | 3.43 | 19.3 | 18.2
[18] | -4.68 | -3.55 | 18.9 | 23.4 | 19.1
[19] | -4.4 | -0.32 | 26.8 | 39 | 72.7
[20] | -1.79 | -0.33 | 21.2 | 18.2 | 16.7
[21] | 2.8 | 1.89 | -10.2 | -8.53 | 36.1
[22] | -4.06 | 8.89 | 24.4 | 38.2 | 51.5
[23] | 5.92 | -5.87 | 0.1 | 1.88 | 27.9
[24] | -5.55 | -8.58 | -1.51 | -0.3 | 13.4
[25] | 2.15 | -4.23 | -5.27 | -0.32 | 16.7
[26] | -18.1 | -10.6 | -25.8 | -31.2 | -26.9
[27] | 1.06 | -1.54 | 13.7 | 34.2 | 61.1
[28] | -5.33 | -3.66 | -3.4 | -0.06 | 16.8
